Laboratory results reported in US7064120B2, “Tricyclic pyridyl carboxamides and derivatives thereof tocolytic oxytocin receptor antagonists” (Wyeth, priority 2001, dated 2006).

Target: T1, human vasopressin V1a receptor subtype (Homo sapiens, UniProt P37288)
T1 construct: host or cells: CHO cells, stably transfected (pZeoSV vector for the Thibonnier line)
Test: Vasopressin binding in CHO cell membranes expressing human vasopressin V1a subtype receptors ([3H]Manning ligand radioligand binding)
Conditions: 100 nM
In short: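 Radioligand displacement: [3H]Manning ligand, added as 8 nM stock, binds human V1a receptor in CHO-cell membranes (25–50 μg/well), pH 7.4 Tris buffer with protease inhibitors, 60 min room temperature. Bound counts collected by filter harvesting; values are percent inhibition at stated concentration or nanomolar IC50.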

T1 sequence (P37288 whole entry): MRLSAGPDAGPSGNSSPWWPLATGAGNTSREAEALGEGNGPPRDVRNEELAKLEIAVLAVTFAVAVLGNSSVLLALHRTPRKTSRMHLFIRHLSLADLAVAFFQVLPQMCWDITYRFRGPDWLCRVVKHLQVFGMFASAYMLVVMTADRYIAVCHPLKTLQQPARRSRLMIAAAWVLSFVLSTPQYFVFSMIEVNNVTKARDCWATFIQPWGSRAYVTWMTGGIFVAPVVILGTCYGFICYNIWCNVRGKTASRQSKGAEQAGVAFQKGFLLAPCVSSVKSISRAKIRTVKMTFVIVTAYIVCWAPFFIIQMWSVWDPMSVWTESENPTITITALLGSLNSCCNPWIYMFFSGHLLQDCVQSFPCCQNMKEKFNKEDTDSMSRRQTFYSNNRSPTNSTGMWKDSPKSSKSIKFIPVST

Going from `Cc1ccccc1-c1ccc(C(=O)N2Cc3ccc(C(=O)N(C)CCc4ccccn4)n3Cc3ccccc32)cc1` [Example 68, N-Methyl-10-[(2′-methyl-[1,1′-biphenyl]-4-yl)carbonyl]-N-[2-(2-pyridinyl)ethyl]-10,11-dihydro-5H-pyrrolo[2,1-c][1,4]benzodiazepine-3-carboxamide] to `COc1cc(C(=O)N2Cc3ccc(C(=O)N(C)CCc4ccccn4)n3Cc3ccccc32)ccc1-c1ccccc1C` [Example 69, 10-[(2-Methoxy-2′-methyl-[1,1′-biphenyl]-4-yl)carbonyl]-N-methyl-N-[2-(2-pyridinyl)ethyl]-10,11-dihydro-5H-pyrrolo[2,1-c][1,4]benzodiazepine-3-carboxamide], the inhibition at 0.1 µM falls from 81% to 72%.

Compared with `COc1cccc(-c2cc(OC)c(C(=O)N3Cc4ccc(C(=O)N(C)CCc5ccccn5)n4Cc4ccccc43)cc2Cl)c1` [Example 70, 10-[(6-Chloro-3,3′-dimethoxy-[1,1′-biphenyl]-4-yl)carbonyl]-N-methyl-N-[2-(2-pyridinyl)ethyl]-10,11-dihydro-5H-pyrrolo[2,1-c][1,4]benzodiazepine-3-carboxamide], `COc1cccc(-c2ccc(C(=O)N3Cc4ccc(C(=O)N(C)CCc5ccccn5)n4Cc4ccccc43)cc2OC)c1` [Example 72, 10-[(2,3′-Dimethoxy-[1,1′-biphenyl]-4-yl)carbonyl]-N-methyl-N-[2-(2-pyridinyl)ethyl]-10,11-dihydro-5H-pyrrolo[2,1-c][1,4]benzodiazepine-3-carboxamide] is higher in inhibition at 0.1 µM: 8% for the first, 54% for the second.

First: COc1cc(C(=O)N2Cc3ccc(C(=O)N(C)CCc4ccccn4)n3Cc3ccccc32)ccc1-c1cccc2ccccc12 [Example 71, 10-[3-Methoxy-4-(naphthalen-1-yl)benzoyl]-N-methyl-N-[2-(2-pyridinyl)ethyl]-10,11-dihydro-5H-pyrrolo[2,1-c][1,4]benzodiazepine-3-carboxamide]
Second: CN(CCc1ccccn1)C(=O)c1ccc2n1Cc1ccccc1N(C(=O)c1ccc(-c3cccc4ccccc34)cc1Cl)C2 [Example 73, 10-[2-Chloro-4-(naphthalen-1-yl)benzoyl]-N-methyl-N-[2-(2-pyridinyl)ethyl]-10,11-dihydro-5H-pyrrolo[2,1-c][1,4]benzodiazepine-3-carboxamide]
The inhibition at 0.1 µM of the first is higher: 20% for the first, 6% for the second.

First: Cc1cc(C(=O)N2Cc3ccc(C(=O)N(C)CCc4ccccn4)n3Cc3ccccc32)ccc1-c1ccccc1C(F)(F)F [Example 74, N-Methyl-10-{[2-methyl-2′-trifluoromethyl-[1,1′-biphenyl]-4-yl]carbonyl}-N-[2-(2-pyridinyl)ethyl]-10,11-dihydro-5H-pyrrolo[2,1-c][1,4]benzodiazepine-3-carboxamide]
Second: Cc1cc(C(=O)N2Cc3ccc(C(=O)N4CCN(c5ccccn5)CC4)n3Cc3ccccc32)ccc1-c1ccccc1C(F)(F)F [Example 87, (10-{[2-Methyl-2′-trifluoromethyl-[1,1′-biphenyl]-4-yl]carbonyl}-10,11-dihydro-5H-pyrrolo[2,1-c][1,4]benzodiazepin-3-yl)[4-(2-pyridinyl)-1-piperazinyl]methanone]
The inhibition at 0.1 µM of the first is higher: 63% for the first, 1% for the second.

Going from `COc1ccccc1-c1ccc(C(=O)N2Cc3ccc(C(=O)N4CCN(c5ccccn5)CC4)n3Cc3ccccc32)cc1C` [Example 75, {10-[(2′-Methoxy-2-methyl-[1,1′-biphenyl]-4-yl)carbonyl]-10,11-dihydro-5H-pyrrolo[2,1-c][1,4]benzodiazepin-3-yl}[4-(2-pyridinyl)-1-piperazinyl]methanone] to `COc1cc(C(=O)N2Cc3ccc(C(=O)N4CCN(c5ccccn5)CC4)n3Cc3ccccc32)ccc1-c1ccccc1C` [Example 80, {10-[(2-Methoxy-2′-methyl-[1,1′-biphenyl]-4-yl)carbonyl]-10,11-dihydro-5H-pyrrolo[2,1-c][1,4]benzodiazepin-3-yl}[4-(2-pyridinyl)-1-piperazinyl]methanone], the inhibition at 0.1 µM rises from -1% to 6%.

Compared with `Cc1ccccc1-c1ccc(C(=O)N2Cc3ccc(C(=O)N4CCN(c5ccccn5)CC4)n3Cc3ccccc32)cc1C` [Example 76, {10-[(2,2′-Dimethyl-[1,1′-biphenyl]-4-yl)carbonyl]-10,11-dihydro-5H-pyrrolo[2,1-c][1,4]benzodiazepin-3-yl}[4-(2-pyridinyl)-1-piperazinyl]methanone], `Cc1ccccc1-c1ccc(C(=O)N2Cc3ccc(C(=O)N4CCN(c5ccccn5)CC4)n3Cc3ccccc32)cc1` [Example 79, {10-[(2′-Methyl-[1,1′-biphenyl]-4-yl)carbonyl]-10,11-dihydro-5H-pyrrolo[2,1-c][1,4]benzodiazepin-3-yl}[4-(2-pyridinyl)-1-piperazinyl]methanone] is higher in inhibition at 0.1 µM: 11% for the first, 18% for the second.

Going from `COc1cccc(-c2ccc(C(=O)N3Cc4ccc(C(=O)N5CCN(c6ccccn6)CC5)n4Cc4ccccc43)cc2C)c1` [Example 77, {10-[(3′-Methoxy-2-methyl-[1,1′-biphenyl]-4-yl)carbonyl]-10,11-dihydro-5H-pyrrolo[2,1-c][1,4]benzodiazepin-3-yl}[4-(2-pyridinyl)-1-piperazinyl]methanone] to `COc1cccc(-c2ccc(C(=O)N3Cc4ccc(C(=O)N5CCN(c6ccccn6)CC5)n4Cc4ccccc43)cc2OC)c1` [Example 85, {10-[(2,3′-Dimethoxy-[1,1′-biphenyl]-4-yl)carbonyl]-10,11-dihydro-5H-pyrrolo[2,1-c][1,4]benzodiazepin-3-yl}[4-(2-pyridinyl)-1-piperazinyl]methanone], the inhibition at 0.1 µM falls from 5% to -5%.

Compared with `COc1ccccc1-c1ccc(C(=O)N2Cc3ccc(C(=O)N4CCN(c5ccccn5)CC4)n3Cc3ccccc32)cc1` [Example 78, {10-[(2′-Methoxy-[1,1′-biphenyl]-4-yl)carbonyl]-10,11-dihydro-5H-pyrrolo[2,1-c][1,4]benzodiazepin-3-yl}[4-(2-pyridinyl)-1-piperazinyl]methanone], `COc1ccccc1-c1ccc(C(=O)N2Cc3ccc(C(=O)N4CCN(c5ccccn5)CC4)n3Cc3ccccc32)cc1OC` [Example 84, {10-[(2,2′-Dimethoxy-[1,1′-biphenyl]-4-yl)carbonyl]-10,11-dihydro-5H-pyrrolo[2,1-c][1,4]benzodiazepin-3-yl}[4-(2-pyridinyl)-1-piperazinyl]methanone] is lower in inhibition at 0.1 µM: 6% for the first, 3% for the second.

First: COc1cc(-c2ccccc2C)c(Cl)cc1C(=O)N1Cc2ccc(C(=O)N3CCN(c4ccccn4)CC3)n2Cc2ccccc21 [Example 81, {10-[(6-Chloro-3-methoxy-2′-methyl-[1,1′-biphenyl]-4-yl)carbonyl]-10,11-dihydro-5H-pyrrolo[2,1-c][1,4]benzodiazepin-3-yl}[4-(2-pyridinyl)-1-piperazinyl]methanone]
Second: COc1cccc(-c2cc(OC)c(C(=O)N3Cc4ccc(C(=O)N5CCN(c6ccccn6)CC5)n4Cc4ccccc43)cc2Cl)c1 [Example 82, {10-[(6-Chloro-3,3′-dimethoxy-[1,1′-biphenyl]-4-yl)carbonyl]-10,11-dihydro-5H-pyrrolo[2,1-c][1,4]benzodiazepin-3-yl}[4-(2-pyridinyl)-1-piperazinyl]methanone]
The inhibition at 0.1 µM of the first is lower: -6% for the first, -1% for the second.

`O=C(c1ccc2n1Cc1ccccc1N(C(=O)c1ccc(-c3cccc4ccccc34)cc1Cl)C2)N1CCN(c2ccccn2)CC1` [Example 86, {10-[2-Chloro-4-(naphthalen-1-yl)benzoyl]-10,11-dihydro-5H-pyrrolo[2,1-c][1,4]benzodiazepin-3-yl}[4-(2-pyridinyl)-1-piperazinyl]methanone] was tested, and the inhibition at 0.1 µM was 1%.
